Assay results from patent US20070054916A1, “Aryl nitrogen-containing bicyclic compounds and methods of use” (Amgen Inc., priority 2004, published 2007).

Tested on: production of TNF by monocytes activated with bacterial lipopolysaccharide (LPS)
Experiment: Lipopolysaccharide-activated monocyte TNF production assay
Assay type: cell-based
Conditions: Homo sapiens, read-out: IC50 values in the monocyte assay (LPS induced TNF release)
Outline: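 Adherent human PBMC-derived monocytes (~70%) in DMEM/2% FCS were pre-incubated 60 min with nine two-fold compound dilutions, then stimulated with E. coli K532 LPS (added as 30 ng/ml solution) for 4 h at 37 °C. Supernatant TNF-α was measured by sandwich ELISA. IC50 was taken from a polynomial fit of TNF versus compound concentration.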

SMILES | IC50 [µM]
Cc1ccc(C(=O)Nc2cc(C(F)(F)F)ccc2N2CCN(C)CC2)cc1-c1ccc2nc(N)ncc2c1 [Example 74, 3-(2-amino-6-quinazolinyl)-4-methyl-N-(2-(4-methyl-1-piperazinyl)-5-(trifluoromethyl)phenyl)benzamide] | ≤ 25
CNc1ncc2cc(-c3cc(C(=O)Nc4cccc(C(F)(F)F)c4)c(F)cc3C)ccc2n1 [Example 38, 2-fluoro-4-methyl-5-(2-(methylamino)-6-quinazolinyl)-N-(3-(trifluoromethyl)phenyl)benzamide] | ≤ 25
CNc1ncc2cc(-c3cccc(NC(=O)c4cc(F)cc(C(F)(F)F)c4)c3C)cnc2n1 [Example 219] | ≤ 25
Cc1ccnc(NC(=O)c2ccc(C)c(-c3ccc4nc(N)ncc4c3)c2)c1 [Example 339, 3-(2-amino-6-quinazolinyl)-4-methyl-N-(4-methyl-2-pyridinyl)benzamide] | ≤ 25
Cc1ccc(C(=O)Nc2cc(C(=O)N3CCN(C)CC3)cc(C(F)(F)F)c2)cc1-c1ccc2nc(N)ncc2c1 [Example 158, 3-(2-amino-6-quinazolinyl)-4-methyl-N-(3-((4-methyl-1-piperazinyl)carbonyl)-5-(trifluoromethyl)phenyl)benzamide] | ≤ 25
Nc1ncc2cc(-c3cc(C(=O)Nc4cc(C(F)(F)F)ccc4N4CCCCC4)ccc3Cl)ccc2n1 [Example 156, 3-(2-amino-6-quinazolinyl)-4-chloro-N-(2-(1-piperidinyl)-5-(trifluoromethyl)phenyl)benzamide] | ≤ 25
CNc1ncc2cc(-c3cc(C(=O)NCc4ccccn4)ccc3C)cnc2n1 [Example 185, 4-methyl-3-(2-(methylamino)pyrido [2,3-d]pyrimidin-6-yl)-N-(2-pyridinylmethyl) benzamide] | ≤ 25
Cc1ccc(NC(=O)c2cccc(C(C)C)c2)cc1-c1ccc2nc(N)ncc2c1 [Example 432, N-(3-(2-aminoquinazolin-6-yl)-4-methylphenyl)-3-isopropylbenzamide] | ≤ 25
Nc1ncc2cc(-c3cccc(C(=O)Nc4cc(C(F)(F)F)ccc4N4CCCCC4)c3)ccc2n1 [Example 54, 3-(2-amino-6-quinazolinyl)-N-(2-(1-piperidinyl)-5-(trifluoromethyl)phenyl)benzamide] | ≤ 25
Nc1ncc2cc(-c3cc(C(=O)Nc4cccc(C(F)(F)F)c4F)ccc3Cl)ccc2n1 [Example 140, 3-(2-amino-6-quinazolinyl)-4-chloro-N-(2-fluoro-3-(trifluoromethyl)phenyl)benzamide] | ≤ 25
CNc1ncc2cc(-c3cc(NC(=O)c4cccc(C(F)(F)F)c4)ccc3C)cnc2n1 [Example 199, N-(4-methyl-3-(2-(methylamino)pyrido[2,3-d]pyrimidin-6-yl)phenyl)-3-(trifluoromethyl) benzamide] | ≤ 25
Cc1ccc(C(=O)Nc2cccc(C(F)(F)F)c2C)cc1-c1ccc2nc(NCCCN3CCOCC3)ncc2c1 [Example 32, 4-methyl-N-(2-methyl-3-(trifluoromethyl)phenyl)-3-(2-((3-(4-morpholinyl)propyl)amino)-6-quinazolinyl) benzamide] | ≤ 25
CN(C)[C@@H]1CCN(c2ccc(C(F)(F)F)cc2NC(=O)c2cc(-c3ccc4nc(N)ncc4c3)ccc2F)C1 [Example 422, 5-(2-amino-6-quinazolinyl)-N-(2-((3R)-3-(dimethylamino)-1-pyrrolidinyl)-5-(trifluoromethyl)phenyl)-2-fluorobenzamide] | ≤ 25
CN1CC[C@@H](N(C)c2ccc(C(F)(F)F)cc2NC(=O)c2cc(-c3ccc4nc(N)ncc4c3)ccc2F)C1 [Example 419, 5-(2-amino-6-quinazolinyl)-2-fluoro-N-(2-(methyl((3R)-1-methyl-3-pyrrolidinyl)amino)-5-(trifluoromethyl)phenyl)benzamide] | ≤ 25
Cc1ccc(C(=O)Nc2ccc(F)cc2F)cc1-c1ccc2nc(N)ncc2c1 [Example 424, 3-(2-amino-6-quinazolinyl)-N-(2,4-difluorophenyl)-4-methylbenzamide] | ≤ 25
Cc1ccc(C(=O)NCc2ccccn2)cc1-c1ccc2nc(N)ncc2c1 [Example 426, 3-(2-amino-6-quinazolinyl)-4-methyl-N-(2-pyridinylmethyl) benzamide] | ≤ 25
Cc1ccc(C(=O)NCc2ccc(C(F)(F)F)nc2)cc1-c1ccc2nc(N)ncc2c1 [Example 357, 3-(2-amino-6-quinazolinyl)-4-methyl-N-((6-(trifluoromethyl)-3-pyridinyl)methyl) benzamide] | ≤ 25
COc1ccc(C(C)(C)C)cc1NC(=O)c1ccc(F)c(-c2ccc3nc(N)ncc3c2)c1 [Example 138, 3-(2-amino-6-quinazolinyl)-N-(5-(1,1-dimethylethyl)-2-(methyloxy)phenyl)-4-fluorobenzamide] | ≤ 25
Cc1ccc(C(=O)Nc2cccc(C(F)(F)F)c2C)cc1-c1ccc2nc(NC3CCN(C)CC3)ncc2c1 [Example 36, 4-methyl-3-(2-((1-methyl-4-piperidinyl)amino)-6-quinazolinyl)-N-(2-methyl-3-(trifluoromethyl)phenyl)benzamide] | ≤ 25

SMILES | IC50 [µM]
Cc1ccc(C(=O)Nc2cc(C(F)(F)F)ccn2)cc1-c1ccc2nc(N)ncc2c1 [Example 345, 3-(2-amino-6-quinazolinyl)-4-methyl-N-(4-(trifluoromethyl)-2-pyridinyl)benzamide] | ≤ 25
CN(C)CCOc1ccc(-c2ccc3nc(N)ncc3c2)cc1C(=O)Nc1cccc(C(F)(F)F)c1 [Example 57, 5-(2-amino-6-quinazolinyl)-2-((2-(dimethylamino)ethyl)oxy)-N-(3-(trifluoromethyl)phenyl)benzamide] | ≤ 25
CNc1ncc2cc(-c3cc(NC(=O)c4cccc(C(F)(F)F)c4F)ccc3C)cnc2n1 [Example 202] | ≤ 25
COCCNc1ncc2cc(-c3cc(C(=O)Nc4cccc(C(F)(F)F)c4F)ccc3C)ccc2n1 [Example 24, N-(2-fluoro-3-(trifluoromethyl)phenyl)-4-methyl-3-(2-((2-(methyloxy)ethyl)amino)-6-quinazolinyl) benzamide] | ≤ 25
CC(C)c1cccc(C(=O)Nc2cc(-c3ccc4nc(N)ncc4c3)ccc2F)c1 [Example 491, N-(5-(2-amino-6-quinazolinyl)-2-fluorophenyl)-3-(1-methylethyl)benzamide] | ≤ 25
Cc1ccc(NC(=O)c2ccc(C)c(-c3ccc4nc(N)ncc4c3)c2)cc1NC(=O)CN1CCOCC1 [Example 62, 3-(2-amino-6-quinazolinyl)-4-methyl-N-(4-methyl-3-((4-morpholinylacetyl)amino)phenyl) benzamide] | ≤ 25
Nc1ncc2cc(-c3ccc(F)c(NC(=O)c4ccccc4)c3)ccc2n1 [Example 485, N-(5-(2-amino-6-quinazolinyl)-2-fluorophenyl)benzamide] | ≤ 25
CCN(CC)CCNC(=O)Nc1ccc(NC(=O)c2ccc(C)c(-c3cnc4nc(NC)ncc4c3)c2)cc1C(F)(F)F [Example 188] | ≤ 25
CNc1ncc2cc(-c3cc(C(=O)Nc4cccc(C(F)(F)F)c4)ccc3C)ccc2n1 [Example 18, 4-methyl-3-(2-(methylamino)-6-quinazolinyl)-N-(3-(trifluoromethyl)phenyl)benzamide] | ≤ 25
Cc1ccc(C(=O)Nc2ccc(N3CCCC3)c(C(=O)N3CCCC3)c2F)cc1-c1ccc2nc(N)ncc2c1 [Example 428, 3-(2-amino-6-quinazolinyl)-N-(2-fluoro-4-(1-pyrrolidinyl)-3-(1-pyrrolidinylcarbonyl)phenyl)-4-methylbenzamide] | ≤ 25
CC(=O)c1sccc1NC(=O)c1ccc(C)c(-c2ccc3nc(N)ncc3c2)c1 [Example 355, N-(2-acetyl-3-thienyl)-3-(2-amino-6-quinazolinyl)-4-methylbenzamide] | ≤ 25
Cc1cc(C)c(-c2ccc3nc(N)ncc3c2)c(C)c1NC(=O)c1cccc(C(F)(F)F)c1 [Example 224, N-(3-(2-amino-6-quinazolinyl)-2,4,6-trimethylphenyl)-3-(trifluoromethyl) benzamide] | ≤ 25
Nc1ncc2cc(-c3ccc(F)c(NC(=O)C4CC4)c3)ccc2n1 [Example 486, N-(5-(2-amino-6-quinazolinyl)-2-fluorophenyl)cyclopropanecarboxamide] | ≤ 25
Cc1ccc(C(=O)Nc2cccc(C(F)(F)F)c2)cc1-c1ccc2nc(N)ncc2c1 [Example 120, 3-(2-amino-6-quinazolinyl)-4-methyl-N-(3-(trifluoromethyl)phenyl)benzamide] | ≤ 25
CCN1CCC(CNc2ncc3cc(-c4cc(C(=O)Nc5cccc(C(F)(F)F)c5C)ccc4C)ccc3n2)CC1 [Example 35, 3-(2-(((1-ethyl-4-piperidinyl)methyl)amino)-6-quinazolinyl)-4-methyl-N-(2-methyl-3-(trifluoromethyl)phenyl)benzamide] | ≤ 25
CN1CCN(c2ccc(C(F)(F)F)cc2C(=O)Nc2cc(-c3ccc4nc(N)ncc4c3)ccc2F)CC1 [Example 434, N-(5-(2-aminoquinazolin-6-yl)-2-fluorophenyl)-2-(4-methylpiperazin-1-yl)-5-(trifluoromethyl)benzamide] | ≤ 25
CN(C)CCCN(C)c1c(Cl)cc(C(F)(F)F)cc1NC(=O)c1cc(-c2ccc3nc(N)ncc3c2)ccc1F [Example 59, 5-(2-amino-6-quinazolinyl)-N-(3-chloro-2-((3-(dimethylamino)propyl)(methyl)amino)-5-(trifluoromethyl)phenyl)-2-fluorobenzamide] | ≤ 25
Cc1ccc(C(=O)Nc2cc(C(F)(F)F)ccc2N(C)CCCN(C)C)cc1-c1ccc2nc(N)ncc2c1 [Example 114, 3-(2-amino-6-quinazolinyl)-N-(2-((3-(dimethylamino)propyl)(methyl)amino)-5-(trifluoromethyl)phenyl)-4-methylbenzamide] | ≤ 25
